Data: patent EP0565593B1, “REDUCING PESTICIDAL INTERACTIONS IN CROPS” (priority 1990, dated 1992)
Where “and” joins values, the source holds several entries; their conditions need not be identical. Identical values can stand only once. Like-named read-outs stand apart in the source and are kept apart here.

How the values were obtained:
Giant foxtail (GIFT) = assay: whole plant or invertebrate; assay type: in vivo; details: for inhibition at 140 g/ha / inhibition at 20 g/ha: Setaria faberi, iv; for inhibition at 20 g/ha: XRD-498 0.02 Kg/Ha alone
Velvetleaf (VELE) [1] = assay: whole plant or invertebrate; assay type: in vivo, Abutilon theophrasti; details: for inhibition at 140 g/ha / inhibition at 20 g/ha: Abutilon theophrasti, iv; for inhibition at 20 g/ha: XRD-498 0.02 Kg/Ha alone
SJCA = assay: Greenhouse test Procedure IV: herbicide, biocide and antidote PPI, weed SJCA (Examples 53-55; Tables 52-54); assay type: in vivo; details: all PPI
Text: The test in this example paralleled that in Example 51, except the procedure was according to Procedure IV above and the herbicides used were No. 1 (MON-12000); No. 21 (XRD-498) and, again, No. 18 (PURSUIT); the biocide was, again, MOCAP®. Observations were taken thirteen (13) days after PPI treatment with biocide and antidote.
This test was identical to that in Example 52, except for use of a different biocide, DIAZINON (Biocide No. 5, a nematicide and soil insecticide).
This test was also identical to that in the preceding two examples, except that the biocide was malathion (No. 7, an insecticide).
This test was identical to the preceding ones, except the biocide was DPX-43898 (No. 6, active ingredient in FORTRESS® insecticide, a soil insecticide). Also, the observation time was fourteen (14) days after PPI initiation.

Corn [2] = system: Corn
Corn [3] = assay: whole plant or invertebrate; details: Zea mays, iv; for inhibition at 20 g/ha: read-out: % Inhibition Corn, XRD-498 0.02 Kg/Ha alone
Shattercane (SHCA) = assay type: in vivo
Velvetleaf (VELE) [4] = assay type: in vivo, Abutilon theophrasti
Corn [5] = system: Corn; remark: listed apart in the source
[6] = Herb. […], PPI, 13 days after planting
[7] = Herbicide No. 21 0.0175 Kg/Ha PPI alone, Table 23
[8] = Herbicide No. 21 0.0175 Kg/Ha PPI alone, Table 24
[9] = Herbicide No. 21 0.0175 Kg/Ha PPI alone, Table 25
[10] = Herbicide No. 21 0.0175 Kg/Ha PPI alone, Table 26
[11] = 312 h, Herb. No. 21 0.14 kg/Ha alone, PPI, 13 days after planting
[12] = 312 h, Table 51, Herbicide No. 21 0.14 Kg/Ha, where applied Biocide No. 8 8.96 kg/Ha and antidote 4.48 Kg/Ha, all PPI, observed 13 days after treatment
[13] = 312 h, PPI, 13 days after PPI (Table 31)
[14] = 336 h, PPI, 14 days after PPI (Table 34)
[15] = XRD-498 0.02 Kg/Ha PPI alone, 13 days after treatment
[16] = […], PPI, 13 days after PPI (Table 31)
[17] = […], PPI, 14 days after PPI (Table 34)
[18] = Herbicide No. 18 0.0175 Kg/Ha POE alone, Table 17
[19] = Herbicide No. 18 0.0175 Kg/Ha POE alone, Table 18
[20] = Herbicide No. 18 alone, POE 5 DAP, observed 13 DAP
[21] = no antidote, […], observed 10 days after herbicide application
[22] = 312 h, Table 51, Herbicide No. 18 0.14 Kg/Ha, where applied Biocide No. 8 8.96 kg/Ha and antidote 4.48 Kg/Ha, all PPI, observed 13 days after treatment

SMILES: Cc1ccn2nc(S(=O)(=O)Nc3c(F)cccc3F)nc2n1 [Herbicide No. 21, 5-Methyl-N-(2,6-difluorophenyl)-1,2,4-triazolo[1,5-a]pyrimidine-2-sulfonamide, reference compound]
- % Inhibition GIFT (Giant foxtail (GIFT); [6]): 95%
- % Inhibition GIFT (Giant foxtail (GIFT); [7]): 0%
- % Inhibition GIFT (Giant foxtail (GIFT); [8]): 0%
- % Inhibition GIFT (Giant foxtail (GIFT); [9]): 0%
- % Inhibition GIFT (Giant foxtail (GIFT); [10]): 0%
- inhibition at 140 g/ha (Giant foxtail (GIFT); [11]): 40%
- inhibition at 140 g/ha (Giant foxtail (GIFT); [12]): 70%
- inhibition at 20 g/ha (Giant foxtail (GIFT); [13]): 30%
- inhibition at 20 g/ha (Giant foxtail (GIFT); [14]): 35%
- % Inhibition GIFT (Giant foxtail (GIFT); [15]): 25%
- % Inhibition GIFT (Giant foxtail (GIFT); [16]): 75%
- % Inhibition GIFT (Giant foxtail (GIFT); [17]): 65%
- % Inhibition GIFT (Giant foxtail (GIFT); in vivo): 60% and 75% and 90%
- inhibition at 140 g/ha (Velvetleaf (VELE) [1]; [11]): 75%
- inhibition at 140 g/ha (Velvetleaf (VELE) [1]; [12]): 80%
- inhibition at 140 g/ha (Velvetleaf (VELE) [1]; 312 h, Table 52, Herbicide No. 21 0.14 Kg/Ha, where applied Biocide No. 5 8.96 kg/Ha and antidote 4.48 Kg/Ha, all PPI, observed 13 days after treatment): 80%
- inhibition at 140 g/ha (Velvetleaf (VELE) [1]; 312 h, Table 53, Herbicide No. 21 0.14 Kg/Ha, where applied Biocide No. 7 8.96 kg/Ha and antidote 4.48 Kg/Ha, all PPI, observed 13 days after treatment): 85%
- inhibition at 20 g/ha (Velvetleaf (VELE) [1]; [13]): 80%
- inhibition at 140 g/ha (Velvetleaf (VELE) [1]; 336 h, Table 54, Herbicide No. 21 0.14 Kg/Ha, where applied Biocide No. 6 8.96 kg/Ha and antidote 4.48 Kg/Ha, all PPI, observed 14 days after PPI initiation): 85%
- inhibition at 20 g/ha (Velvetleaf (VELE) [1]; [14]): 80%
- % Inhibition VELE (Velvetleaf (VELE) [1]; [7]): 60%
- % Inhibition VELE (Velvetleaf (VELE) [1]; [8]): 45%
- % Inhibition VELE (Velvetleaf (VELE) [1]; [9]): 60%
- % Inhibition VELE (Velvetleaf (VELE) [1]; [10]): 50%
- % Inhibition VELE (Velvetleaf (VELE) [1]; [15]): 90%
- % Inhibition VELE (Velvetleaf (VELE) [1]; [17]): 90%
- % Inhibition VELE (Velvetleaf (VELE) [1]; in vivo): 70% and 75%
- % Inhibition VELE (Velvetleaf (VELE) [1]; in vivo, listed as XRD-498): 90%
- inhibition at 140 g/ha (SJCA; 312 h, Table 52, Herbicide No. 21 0.14 Kg/Ha, where applied Biocide No. 5 8.96 kg/Ha and antidote 4.48 Kg/Ha, observed 13 days after treatment): 70%
- inhibition at 140 g/ha (SJCA; 312 h, Table 53, Herbicide No. 21 0.14 Kg/Ha, where applied Biocide No. 7 8.96 kg/Ha and antidote 4.48 Kg/Ha, observed 13 days after treatment): 75%
- inhibition at 140 g/ha (SJCA; 336 h, Table 54, Herbicide No. 21 0.14 Kg/Ha, where applied Biocide No. 6 8.96 kg/Ha and antidote 4.48 Kg/Ha, observed 14 days after PPI initiation): 60%
- % Inhibition Corn (Corn [2]; [6]): 75%
- % Inhibition Corn (Corn [2]; [7]): 0%
- % Inhibition Corn (Corn [2]; [8]): 0%
- % Inhibition Corn (Corn [2]; [9]): 0%
- % Inhibition Corn (Corn [2]; [10]): 5%
- % Inhibition Corn (Corn [2]; [15]): 15%
- corn injury (Corn [2]; XRD-498 with OP insecticides, Examples 24-27): 30-55%
- corn injury (Corn [2]; XRD-498 without insecticide, Examples 24-27): 0-5%
- % Inhibition Corn (Corn [2]; [16]): 70%
- % Inhibition Corn (Corn [2]; [17]): 75%
- corn injury (Corn [2]; herbicide used in conjunction with COUNTER, Tables 29-37): 55-70%
- corn injury (Corn [2]; herbicide without COUNTER, Tables 29-37): 0-5%
- % Inhibition Corn (Corn [2]; in vivo): 50% and 30% and 55%
- % Inhibition Corn (Corn [2]; in vivo, listed as XRD-498): 75%
- inhibition at 140 g/ha (Corn [3]; 312 h, read-out: % Inhibition Corn, Herb. No. 21 0.14 kg/Ha alone, PPI, 13 days after planting): 5%
- inhibition at 140 g/ha (Corn [3]; 312 h, read-out: % Inhibition Corn, Table 51, Herbicide No. 21 0.14 Kg/Ha, where applied Biocide No. 8 8.96 kg/Ha and antidote 4.48 Kg/Ha, all PPI, observed 13 days after treatment): 10%
- inhibition at 140 g/ha (Corn [3]; 312 h, read-out: % Inhibition Corn, Table 52, Herbicide No. 21 0.14 Kg/Ha, where applied Biocide No. 5 8.96 kg/Ha and antidote 4.48 Kg/Ha, all PPI, observed 13 days after treatment): 5%
- inhibition at 140 g/ha (Corn [3]; 312 h, read-out: % Inhibition Corn, Table 53, Herbicide No. 21 0.14 Kg/Ha, where applied Biocide No. 7 8.96 kg/Ha and antidote 4.48 Kg/Ha, all PPI, observed 13 days after treatment): 10%
- inhibition at 20 g/ha (Corn [3]; [13]): 5%
- inhibition at 140 g/ha (Corn [3]; 336 h, read-out: % Inhibition Corn, Table 54, Herbicide No. 21 0.14 Kg/Ha, where applied Biocide No. 6 8.96 kg/Ha and antidote 4.48 Kg/Ha, all PPI, observed 14 days after PPI initiation): 10%
- inhibition at 20 g/ha (Corn [3]; [14]): 20%

SMILES: CC(C)C1(C)N=C(c2ncccc2C(=O)O)NC1=O (stereo not drawn) [Herbicide No. 18, 3-Pyridinecarboxylic acid, 2-[4,5-dihydro-4-methyl-4-(1-methylethyl)-5-oxo-1H-imidazol-2-yl]-, reference compound]
- % Inhibition SHCA (Shattercane (SHCA); [18]): 65%
- % Inhibition SHCA (Shattercane (SHCA); [19]): 45%
- % Inhibition SHCA (Shattercane (SHCA); [20]): 20%
- % Inhibition SHCA (Shattercane (SHCA); Table 50, Herbicide No. 18 0.017 Kg/Ha POE, where applied Biocide No. 8 8.96 kg/Ha and antidote 4.48 Kg/Ha PPI, observed 9 days after POE): 40%
- % Inhibition SHCA (Shattercane (SHCA); [21]): 60%
- % Inhibition VELE (Velvetleaf (VELE) [4]; [18]): 80%
- % Inhibition VELE (Velvetleaf (VELE) [4]; [19]): 85%
- % Inhibition VELE (Velvetleaf (VELE) [4]; in vivo): 80%
- % Inhibition VELE (Velvetleaf (VELE) [4]; [21]): 80%
- inhibition at 140 g/ha (Giant foxtail (GIFT); [22]): 75%
- inhibition at 140 g/ha (Velvetleaf (VELE) [1]; [22]): 65%
- inhibition at 140 g/ha (Velvetleaf (VELE) [1]; 312 h, Table 52, Herbicide No. 18 0.14 Kg/Ha, where applied Biocide No. 5 8.96 kg/Ha and antidote 4.48 Kg/Ha, all PPI, observed 13 days after treatment): 75%
- inhibition at 140 g/ha (Velvetleaf (VELE) [1]; 336 h, Table 54, Herbicide No. 18 0.14 Kg/Ha, where applied Biocide No. 6 8.96 kg/Ha and antidote 4.48 Kg/Ha, all PPI, observed 14 days after PPI initiation): 70%
- inhibition at 140 g/ha (SJCA; 312 h, Table 52, Herbicide No. 18 0.14 Kg/Ha, where applied Biocide No. 5 8.96 kg/Ha and antidote 4.48 Kg/Ha, observed 13 days after treatment): 75%
- inhibition at 140 g/ha (SJCA; 312 h, Table 53, Herbicide No. 18 0.14 Kg/Ha, where applied Biocide No. 7 8.96 kg/Ha and antidote 4.48 Kg/Ha, observed 13 days after treatment): 70%
- inhibition at 140 g/ha (SJCA; 336 h, Table 54, Herbicide No. 18 0.14 Kg/Ha, where applied Biocide No. 6 8.96 kg/Ha and antidote 4.48 Kg/Ha, observed 14 days after PPI initiation): 75%
- % Inhibition Corn (Corn [5]; [18]): 15%
- % Inhibition Corn (Corn [5]; [19]): 10%
- % Inhibition Corn (Corn [5]; [20]): 5%
- inhibition at 140 g/ha (Corn [3]; 312 h, read-out: % Inhibition Corn, Table 51, Herbicide No. 18 0.14 Kg/Ha, where applied Biocide No. 8 8.96 kg/Ha and antidote 4.48 Kg/Ha, all PPI, observed 13 days after treatment): 15%
- inhibition at 140 g/ha (Corn [3]; 312 h, read-out: % Inhibition Corn, Table 52, Herbicide No. 18 0.14 Kg/Ha, where applied Biocide No. 5 8.96 kg/Ha and antidote 4.48 Kg/Ha, all PPI, observed 13 days after treatment): 10%
- inhibition at 140 g/ha (Corn [3]; 312 h, read-out: % Inhibition Corn, Table 53, Herbicide No. 18 0.14 Kg/Ha, where applied Biocide No. 7 8.96 kg/Ha and antidote 4.48 Kg/Ha, all PPI, observed 13 days after treatment): 15%
- inhibition at 140 g/ha (Corn [3]; 336 h, read-out: % Inhibition Corn, Table 54, Herbicide No. 18 0.14 Kg/Ha, where applied Biocide No. 6 8.96 kg/Ha and antidote 4.48 Kg/Ha, all PPI, observed 14 days after PPI initiation): 15%
